Laboratory results as given in ChEMBL document CHEMBL3044676, “Effect of Antibiotics on Formation of Aerial Mycelium and Production of Phytotoxins in Streptomyces spp” (2003).
Active and inactive are the calls of the source. The calls are words filed in the database; no cut-off is given here.

Assays:
Streptomyces alboniger [1] = experiment: Antimicrobial activity against Streptomyces alboniger IFO 12738 assessed as inhibition of aerial mycelial growth at 0.4 ug/disk after 5 days by paper disk method; format: functional; conditions: for zone of inhibition at 0.4 µg/disc: IFO 12738, 120 h, read-out: DIZ
[2] = tested on: Streptomyces acidiscabies; experiment: Antimicrobial activity against Streptomyces acidiscabies ATCC 4900315 assessed as inhibition of growth at 4 ug/disk after 5 days by paper disk method; format: functional; conditions: for zone of inhibition at 4 µg/disc: ATCC 4900315, 120 h, read-out: DIZ
Streptomyces alboniger [3] = experiment: Antimicrobial activity against Streptomyces alboniger IFO 12738 assessed as inhibition of aerial mycelial growth at 4 ug/disk after 5 days by paper disk method; format: functional
[4] = tested on: Streptomyces acidiscabies; experiment: Antimicrobial activity against Streptomyces acidiscabies ATCC 4900315 assessed as inhibition of aerial mycelial growth at 0.4 ug/disk after 5 days by paper disk method; format: functional; conditions: for zone of inhibition at 0.4 µg/disc: ATCC 4900315, 120 h, read-out: DIZ
[5] = tested on: Streptomyces acidiscabies; experiment: Antimicrobial activity against Streptomyces acidiscabies ATCC 4900315 assessed as inhibition of aerial mycelial growth at 4 ug/disk after 5 days by paper disk method; format: functional; conditions: for zone of inhibition at 4 µg/disc: ATCC 4900315, 120 h, read-out: DIZ
Streptomyces alboniger [6] = experiment: Antimicrobial activity against Streptomyces alboniger IFO 12738 assessed as inhibition of aerial mycelial growth at 0.04 ug/disk after 5 days by paper disk method; format: functional, organism-based
[7] = tested on: Streptomyces acidiscabies; experiment: Antimicrobial activity against Streptomyces acidiscabies ATCC 4900315 assessed as inhibition of aerial mycelial growth at 0.04 ug/disk after 5 days by paper disk method; format: functional
Streptomyces scabiei [8] = experiment: Antimicrobial activity against Streptomyces scabiei ATCC 4917314 assessed as inhibition of aerial mycelial growth at 0.40 ug/disk after 5 days by paper disk method; format: functional; conditions: for zone of inhibition at 0.4 µg/disc: ATCC 4917314, 120 h, read-out: DIZ
Streptomyces scabiei [9] = experiment: Antimicrobial activity against Streptomyces scabiei ATCC 4917314 assessed as inhibition of aerial mycelial growth at 0.04 ug/disk after 5 days by paper disk method; format: functional
Streptomyces scabiei [10] = experiment: Antimicrobial activity against Streptomyces scabiei ATCC 4917314 assessed as inhibition of aerial mycelial growth at 4 ug/disk after 5 days by paper disk method; format: functional; conditions: for zone of inhibition at 4 µg/disc: ATCC 4917314, 120 h, read-out: DIZ
Streptomyces scabiei [11] = experiment: Antimicrobial activity against Streptomyces scabiei ATCC 4917314 assessed as inhibition of growth at 4 ug/disk after 5 days by paper disk method; format: functional; conditions: ATCC 4917314, 120 h, read-out: DIZ
Streptomyces scabiei [12] = experiment: Antimicrobial activity against Streptomyces scabiei ATCC 4917314 assessed as inhibition of growth at 0.4 ug/disk after 5 days by paper disk method; format: functional; conditions: for zone of inhibition at 0.4 µg/disc: ATCC 4917314, 120 h, read-out: DIZ
Streptomyces alboniger [13] = experiment: Antimicrobial activity against Streptomyces alboniger IFO 12738 assessed as inhibition of growth at 4 ug/disk after 5 days by paper disk method; format: functional; conditions: IFO 12738, 120 h, read-out: DIZ
Streptomyces alboniger [14] = experiment: Antimicrobial activity against Streptomyces alboniger IFO 12738 assessed as inhibition of growth at 0.4 ug/disk after 5 days by paper disk method; format: functional; conditions: IFO 12738, 120 h, read-out: DIZ

Structure (SMILES): N=C(N)NCC(O)CC(O)(C(=O)O)[C@@H]1O[C@@H](N2C=C(CO)C(N)=NC2O)C=C[C@@H]1NC(=O)[C@@H](N)CO (stereo partly specified) [MILDIOMYCIN]
- diameter of the inhibition zone (DIZ) (Streptomyces alboniger [1]): inactive
- zone of inhibition at 4 µg/disc [2]: 22 mm
- diameter of the inhibition zone (DIZ) (Streptomyces alboniger [3]): inactive
- zone of inhibition at 0.4 µg/disc [4]: 11 mm
- zone of inhibition at 4 µg/disc [5]: 28 mm
- diameter of the inhibition zone (DIZ) (Streptomyces alboniger [6]): inactive
- diameter of the inhibition zone (DIZ) [7]: inactive
- zone of inhibition at 0.4 µg/disc (Streptomyces scabiei [8]): 12 mm
- diameter of the inhibition zone (DIZ) (Streptomyces scabiei [9]): inactive
- diameter of the inhibition zone (DIZ) (Streptomyces scabiei [10]): inactive

Structure (SMILES): CO[C@@H]1[C@@H](OC(N)=O)[C@@H](O)[C@H](Oc2ccc3c(O)c(NC(=O)c4ccc(O)c(CC=C(C)C)c4)c(=O)oc3c2C)OC1(C)C [NOVOBIOCIN]
- zone of inhibition at 0.4 µg/disc (Streptomyces alboniger [1]): 11 mm
- zone of inhibition at 4 µg/disc [2]: 18 mm
- zone of inhibition at 0.4 µg/disc [4]: 14 mm
- zone of inhibition at 4 µg/disc [5]: 39 mm
- diameter of the inhibition zone (DIZ) (Streptomyces alboniger [6]): inactive
- diameter of the inhibition zone (DIZ) [7]: inactive
- zone of inhibition at 4 µg/disc (Streptomyces scabiei [11]): 26 mm
- zone of inhibition at 0.4 µg/disc (Streptomyces scabiei [12]): 17 mm
- zone of inhibition at 4 µg/disc (Streptomyces alboniger [13]): 21 mm
- zone of inhibition at 0.4 µg/disc (Streptomyces scabiei [8]): 28 mm
- diameter of the inhibition zone (DIZ) (Streptomyces scabiei [9]): inactive
- zone of inhibition at 4 µg/disc (Streptomyces scabiei [10]): 44 mm

Structure (SMILES): CN(C)[C@@H]1C(O)=C(C(N)=O)C(=O)[C@@]2(O)C(O)=C3C(=O)c4c(O)cccc4[C@@](C)(O)[C@H]3[C@H](O)[C@@H]12 [OXYTETRACYCLINE]
- diameter of the inhibition zone (DIZ) (Streptomyces alboniger [1]): inactive
- zone of inhibition at 4 µg/disc [2]: 34 mm
- diameter of the inhibition zone (DIZ) (Streptomyces alboniger [3]): inactive
- zone of inhibition at 0.4 µg/disc [4]: 16 mm
- diameter of the inhibition zone (DIZ) [5]: inactive
- diameter of the inhibition zone (DIZ) (Streptomyces alboniger [6]): inactive
- diameter of the inhibition zone (DIZ) [7]: inactive
- zone of inhibition at 4 µg/disc (Streptomyces scabiei [11]): 13 mm
- zone of inhibition at 0.4 µg/disc (Streptomyces scabiei [8]): 13 mm
- zone of inhibition at 0.04 µg/disc (Streptomyces scabiei [9]; ATCC 4917314, 120 h, read-out: DIZ): 10 mm
- zone of inhibition at 4 µg/disc (Streptomyces scabiei [10]): 37 mm

Structure (SMILES): COc1ccc(C[C@H](N)C(=O)N[C@H]2[C@@H](O)[C@H](n3cnc4c(N(C)C)ncnc43)O[C@@H]2CO)cc1 [PUROMYCIN]
- diameter of the inhibition zone (DIZ) (Streptomyces alboniger [1]): inactive
- diameter of the inhibition zone (DIZ) (Streptomyces alboniger [3]): inactive
- diameter of the inhibition zone (DIZ) [4]: inactive
- zone of inhibition at 4 µg/disc [5]: 20 mm
- diameter of the inhibition zone (DIZ) (Streptomyces alboniger [6]): inactive
- diameter of the inhibition zone (DIZ) [7]: inactive
- diameter of the inhibition zone (DIZ) (Streptomyces scabiei [8]): inactive
- diameter of the inhibition zone (DIZ) (Streptomyces scabiei [9]): inactive
- diameter of the inhibition zone (DIZ) (Streptomyces scabiei [10]): inactive

Structure (SMILES): CO[C@H]1/C=C/O[C@@]2(C)Oc3c(C)c(O)c4c(O)c(cc(O)c4c3C2=O)NC(=O)/C(C)=C\C=C\[C@H](C)[C@H](O)[C@@H](C)[C@@H](O)[C@@H](C)[C@H](OC(C)=O)[C@@H]1C [RIFAMYCIN]
- zone of inhibition at 0.4 µg/disc (Streptomyces alboniger [1]): 21 mm
- diameter of the inhibition zone (DIZ) [2]: inactive
- diameter of the inhibition zone (DIZ) [4]: inactive
- zone of inhibition at 4 µg/disc [5]: 12 mm
- diameter of the inhibition zone (DIZ) (Streptomyces alboniger [6]): inactive
- diameter of the inhibition zone (DIZ) [7]: inactive
- diameter of the inhibition zone (DIZ) (Streptomyces scabiei [12]): inactive
- diameter of the inhibition zone (DIZ) (Streptomyces scabiei [8]): inactive
- diameter of the inhibition zone (DIZ) (Streptomyces scabiei [9]): inactive
- zone of inhibition at 4 µg/disc (Streptomyces scabiei [10]): 11 mm
- zone of inhibition at 0.4 µg/disc (Streptomyces alboniger [14]): 11 mm

Structure (SMILES): CN[C@@H]1[C@H](O[C@H]2[C@H](O[C@H]3[C@H](O)[C@@H](O)[C@H](N=C(N)N)[C@@H](O)[C@@H]3N=C(N)N)O[C@@H](C)[C@]2(O)C=O)O[C@@H](CO)[C@H](O)[C@H]1O [STREPTOMYCIN]
- diameter of the inhibition zone (DIZ) (Streptomyces alboniger [1]): inactive
- diameter of the inhibition zone (DIZ) (Streptomyces alboniger [3]): inactive
- diameter of the inhibition zone (DIZ) [4]: inactive
- diameter of the inhibition zone (DIZ) [5]: inactive
- diameter of the inhibition zone (DIZ) (Streptomyces alboniger [6]): inactive
- diameter of the inhibition zone (DIZ) [7]: inactive
- zone of inhibition at 4 µg/disc (Streptomyces scabiei [11]): 18 mm
- zone of inhibition at 0.4 µg/disc (Streptomyces scabiei [12]): 13 mm
- zone of inhibition at 0.4 µg/disc (Streptomyces scabiei [8]): 19 mm
- diameter of the inhibition zone (DIZ) (Streptomyces scabiei [9]): inactive
- zone of inhibition at 4 µg/disc (Streptomyces scabiei [10]): 28 mm
- zone of inhibition at 0.4 µg/disc (Streptomyces alboniger [14]): 15 mm

Structure (SMILES): C=C(NC(=O)C(=C)NC(=O)c1csc(C2=N[C@@H]3c4csc(n4)[C@H]4NC(=O)c5csc(n5)[C@H]([C@](C)(O)[C@@H](C)O)NC(=O)[C@H]5CSC(=N5)/C(=C/C)NC(=O)[C@H]([C@@H](C)O)NC(=O)c5csc(n5)[C@]3(CC2)NC(=O)[C@H](C)NC(=O)C(=C)NC(=O)[C@H](C)NC(=O)[C@H]([C@@H](C)CC)N[C@@H]2C=Cc3c([C@H](C)O)cc(nc3[C@H]2O)C(=O)O[C@@H]4C)n1)C(N)=O [THIOSTREPTON]
- diameter of the inhibition zone (DIZ) (Streptomyces alboniger [1]): inactive
- zone of inhibition at 4 µg/disc [2]: 13 mm
- diameter of the inhibition zone (DIZ) (Streptomyces alboniger [3]): inactive
- zone of inhibition at 0.4 µg/disc [4]: 11 mm
- zone of inhibition at 4 µg/disc [5]: 24 mm
- diameter of the inhibition zone (DIZ) (Streptomyces alboniger [6]): inactive
- diameter of the inhibition zone (DIZ) [7]: inactive
- diameter of the inhibition zone (DIZ) (Streptomyces scabiei [8]): inactive
- diameter of the inhibition zone (DIZ) (Streptomyces scabiei [9]): inactive
- zone of inhibition at 4 µg/disc (Streptomyces scabiei [10]): 12 mm
- zone of inhibition at 0.4 µg/disc (Streptomyces alboniger [14]): 14 mm
